According to ChEMBL document CHEMBL1201862, “PubChem BioAssay data set” (2004):
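Five compound concentrations were applied to cells in 96-well plates for 48 hours; endpoints were derived by simple linear interpolation of the resulting dose-response curve. GI50 marks 50% less growth.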 Activity calls are given as the source filed them. Rule as the data show it: active = GI50 up to about 1.1 µM and inactive = higher.

Experiments:
Experiment in all cases: NCI anticancer screen, dose series, 48 h
[1] = tested on: MDA-MB-435
[2] = tested on: MDA-N
[3] = tested on: EKVX
[4] = tested on: COLO 205
[5] = tested on: UO-31
[6] = tested on: TK-10
[7] = tested on: OVCAR-3
[8] = tested on: SW-620
[9] = tested on: UACC-257
[10] = tested on: RXF 393
[11] = tested on: HCT-15
[12] = tested on: SK-MEL-2
[13] = tested on: RPMI-8226
[14] = tested on: NCI/ADR-RES
[15] = tested on: MCF7
[16] = tested on: 786-0
[17] = tested on: NCI-H226
[18] = tested on: SNB-19
[19] = tested on: OVCAR-5
[20] = tested on: SK-MEL-5
[21] = tested on: KM12
[22] = tested on: SNB-75
[23] = tested on: U-251
[24] = tested on: NCI-H460
[25] = tested on: PC-3
[26] = tested on: Hs-578T
[27] = tested on: HCC 2998
[28] = tested on: BT-549
[29] = tested on: ACHN
[30] = tested on: SK-OV-3
[31] = tested on: M14
[32] = tested on: HT-29
[33] = tested on: HL-60
[34] = tested on: MOLT-4
[35] = tested on: HCT-116
[36] = tested on: SF-268
[37] = tested on: LOX IMVI
[38] = tested on: A498
[39] = tested on: CAKI-1
[40] = tested on: SN12C
[41] = tested on: CCRF-CEM
[42] = tested on: SR
[43] = tested on: K562
[44] = tested on: OVCAR-4
[45] = tested on: SK-MEL-28
[46] = tested on: HOP-92
[47] = tested on: MDA-MB-231
[48] = tested on: IGROV-1
[49] = tested on: SF-539
[50] = tested on: A549
[51] = tested on: SF-295
[52] = tested on: HOP-62
[53] = tested on: UACC-62
[54] = tested on: T47D
[55] = tested on: NCI-H522
[56] = tested on: Malme-3M
[57] = tested on: DU-145
[58] = tested on: OVCAR-8
[59] = tested on: NCI-H23
[60] = tested on: SNB-78
[61] = tested on: DMS-114
[62] = tested on: DLD-1
[63] = tested on: LXFL 529
[64] = tested on: M19-MEL

SMILES: Cc1cc(C)c2c(=N)c3ccccc3n(CCCCCCCCn3c4ccccc4c(=N)c4c(C)cc(C)nc43)c2n1
- GI50 [1]: 1.54 µM (inactive)
- GI50 [2]: 1.56 µM (inactive)
- GI50 [3]: 1.4 µM (inactive)
- GI50 [4]: 1.47 µM (inactive)
- GI50 [5]: 1.46 µM (inactive)
- GI50 [6]: 1.93 µM (inactive)
- GI50 [7]: 1.76 µM (inactive)
- GI50 [8]: 0.238 µM (active)
- GI50 [9]: 1.75 µM (inactive)
- GI50 [10]: 1.32 µM (inactive)
- GI50 [11]: 0.2 µM
- GI50 [12]: 1.75 µM (inactive)
- GI50 [13]: 0.239 µM (active)
- GI50 [14]: 1.6 µM (inactive)
- GI50 [15]: 0.586 µM (active)
- GI50 [16]: 0.931 µM (active)
- GI50 [17]: 1.55 µM (inactive)
- GI50 [18]: 0.282 µM (active)
- GI50 [19]: 1.89 µM (inactive)
- GI50 [20]: 1.82 µM (inactive)
- GI50 [21]: 0.358 µM (active)
- GI50 [22]: 0.596 µM (active)
- GI50 [23]: 0.553 µM (active)
- GI50 [24]: 0.184 µM (active)
- GI50 [25]: 1.38 µM (inactive)
- GI50 [26]: 1.81 µM (inactive)
- GI50 [27]: 0.631 µM (active)
- GI50 [28]: 1.85 µM (inactive)
- GI50 [29]: 1.56 µM (inactive)
- GI50 [30]: 1.73 µM (inactive)
- GI50 [31]: 1.66 µM (inactive)
- GI50 [32]: 0.224 µM (active)
- GI50 [33]: 0.433 µM (active)
- GI50 [34]: 0.258 µM (active)
- GI50 [35]: 0.353 µM (active)
- GI50 [36]: 1.74 µM (inactive)
- GI50 [37]: 0.515 µM (active)
- GI50 [38]: 1.59 µM (inactive)
- GI50 [39]: 1.7 µM (inactive)
- GI50 [40]: 1.59 µM (inactive)
- GI50 [41]: 0.204 µM (active)
- GI50 [42]: 0.127 µM (active)
- GI50 [43]: 0.19 µM (active)
- GI50 [44]: 0.627 µM (active)
- GI50 [45]: 1.6 µM (inactive)
- GI50 [46]: 1.26 µM (inactive)
- GI50 [47]: 1.84 µM (inactive)
- GI50 [48]: 1.33 µM (inactive)
- GI50 [49]: 1.78 µM (inactive)
- GI50 [50]: 1.38 µM (inactive)
- GI50 [51]: 1.5 µM (inactive)
- GI50 [52]: 1.23 µM (inactive)
- GI50 [53]: 1.73 µM (inactive)
- GI50 [54]: 1.77 µM (inactive)
- GI50 [55]: 1.38 µM (inactive)
- GI50 [56]: 1.74 µM (inactive)
- GI50 [57]: 1.64 µM (inactive)
- GI50 [58]: 1.59 µM (inactive)
- GI50 [59]: 1.46 µM (inactive)

SMILES: COC(=O)C(Cc1nc2ccc(Cl)cc2nc1O)/C(=N\N)C(=O)Nc1cc(C)c(Cl)cc1S(=O)(=O)O (stereo not drawn)
- GI50 [3]: > 100 µM (inactive)
- GI50 [4]: > 100 µM (inactive)
- GI50 [5]: > 100 µM (inactive)
- GI50 [60]: > 100 µM (inactive)
- GI50 [61]: 73.5 µM (inactive)
- GI50 [7]: > 100 µM (inactive)
- GI50 [8]: > 10 µM (inactive)
- GI50 [9]: > 100 µM (inactive)
- GI50 [62]: > 100 µM (inactive)
- GI50 [63]: > 100 µM (inactive)
- GI50 [11]: > 100 µM
- GI50 [12]: > 100 µM (inactive)
- GI50 [13]: 88.3 µM (inactive)
- GI50 [16]: > 100 µM (inactive)
- GI50 [17]: 47.1 µM (inactive)
- GI50 [18]: > 100 µM (inactive)
- GI50 [19]: 75.7 µM (inactive)
- GI50 [20]: > 100 µM (inactive)
- GI50 [21]: > 100 µM (inactive)
- GI50 [23]: > 100 µM (inactive)
- GI50 [24]: > 100 µM (inactive)
- GI50 [27]: > 100 µM (inactive)
- GI50 [29]: > 100 µM (inactive)
- GI50 [30]: > 100 µM (inactive)
- GI50 [31]: > 100 µM (inactive)
- GI50 [32]: > 100 µM (inactive)
- GI50 [34]: > 100 µM (inactive)
- GI50 [35]: > 100 µM (inactive)
- GI50 [36]: > 100 µM (inactive)
- GI50 [37]: > 100 µM (inactive)
- GI50 [38]: 70.3 µM (inactive)
- GI50 [39]: > 100 µM (inactive)
- GI50 [40]: > 100 µM (inactive)
- GI50 [41]: 43.1 µM (inactive)
- GI50 [42]: 99.8 µM (inactive)
- GI50 [43]: > 100 µM (inactive)
- GI50 [44]: > 100 µM (inactive)
- GI50 [45]: > 100 µM (inactive)
- GI50 [46]: 24.3 µM (inactive)
- GI50 [48]: > 100 µM (inactive)
- GI50 [49]: > 100 µM (inactive)
- GI50 [50]: > 100 µM (inactive)
- GI50 [51]: > 100 µM (inactive)
- GI50 [52]: > 100 µM (inactive)
- GI50 [53]: > 100 µM (inactive)
- GI50 [55]: 90.6 µM (inactive)
- GI50 [56]: > 100 µM (inactive)
- GI50 [58]: > 100 µM (inactive)
- GI50 [59]: > 100 µM (inactive)

SMILES: COc1cc(O)c2c(c1C)C(C)(O)c1c(C)coc1C2=O (stereo not drawn)
- GI50 [3]: > 100 µM (inactive)
- GI50 [5]: > 100 µM (inactive)
- GI50 [6]: > 100 µM (inactive)
- GI50 [60]: > 100 µM (inactive)
- GI50 [61]: > 100 µM (inactive)
- GI50 [9]: > 100 µM (inactive)
- GI50 [10]: > 100 µM (inactive)
- GI50 [17]: 99.8 µM (inactive)
- GI50 [18]: > 100 µM (inactive)
- GI50 [19]: > 100 µM (inactive)
- GI50 [21]: > 100 µM (inactive)
- GI50 [23]: > 100 µM (inactive)
- GI50 [24]: > 100 µM (inactive)
- GI50 [29]: > 100 µM (inactive)
- GI50 [30]: > 100 µM (inactive)
- GI50 [31]: > 100 µM (inactive)
- GI50 [32]: > 100 µM (inactive)
- GI50 [33]: 57.7 µM (inactive)
- GI50 [35]: > 100 µM (inactive)
- GI50 [38]: 89.7 µM (inactive)
- GI50 [42]: > 100 µM (inactive)
- GI50 [45]: > 100 µM (inactive)
- GI50 [46]: > 100 µM (inactive)
- GI50 [48]: > 100 µM (inactive)
- GI50 [50]: > 100 µM (inactive)
- GI50 [51]: > 100 µM (inactive)
- GI50 [52]: > 100 µM (inactive)
- GI50 [53]: 74.1 µM (inactive)
- GI50 [64]: > 100 µM (inactive)
- GI50 [58]: > 100 µM (inactive)
- GI50 [59]: > 100 µM (inactive)

SMILES: N=C(N)N/N=C/c1c(-c2ccc([N+](=O)[O-])cc2)nc2n1CCS2
- GI50 [1]: 14.8 µM (inactive)
- GI50 [2]: 11.9 µM (inactive)
- GI50 [3]: 18.3 µM (inactive)
- GI50 [4]: 2.76 µM (inactive)
- GI50 [5]: 15.6 µM (inactive)
- GI50 [6]: 17.4 µM (inactive)
- GI50 [7]: 14.8 µM (inactive)
- GI50 [8]: 2.53 µM (inactive)
- GI50 [9]: 18.5 µM (inactive)
- GI50 [10]: 8.51 µM (inactive)
- GI50 [11]: 18.5 µM
- GI50 [12]: 7.35 µM (inactive)
- GI50 [13]: 38 µM (inactive)
- GI50 [14]: > 72.4 µM (inactive)
- GI50 [15]: 6.9 µM (inactive)
- GI50 [16]: 6.67 µM (inactive)
- GI50 [17]: 20.3 µM (inactive)
- GI50 [18]: 3.54 µM (inactive)
- GI50 [19]: 14.4 µM (inactive)
- GI50 [20]: 16.1 µM (inactive)
- GI50 [21]: 4.84 µM (inactive)
- GI50 [22]: 6.04 µM (inactive)
- GI50 [23]: 2.3 µM (inactive)
- GI50 [24]: 15.3 µM (inactive)
- GI50 [25]: 13.2 µM (inactive)
- GI50 [26]: 16.7 µM (inactive)
- GI50 [27]: 6.32 µM (inactive)
- GI50 [28]: 17.1 µM (inactive)
- GI50 [29]: 16.5 µM (inactive)
- GI50 [30]: 20.3 µM (inactive)
- GI50 [31]: 14.5 µM (inactive)
- GI50 [32]: 14.5 µM (inactive)
- GI50 [33]: 8.36 µM (inactive)
- GI50 [34]: 3.24 µM (inactive)
- GI50 [35]: 7.87 µM (inactive)
- GI50 [36]: 9.55 µM (inactive)
- GI50 [37]: 8.26 µM (inactive)
- GI50 [38]: 20.4 µM (inactive)
- GI50 [39]: 17.5 µM (inactive)
- GI50 [40]: 7 µM (inactive)
- GI50 [41]: 1.89 µM (inactive)
- GI50 [42]: 2.25 µM (inactive)
- GI50 [43]: 3.86 µM (inactive)
- GI50 [44]: 7.85 µM (inactive)
- GI50 [45]: 17.3 µM (inactive)
- GI50 [46]: 18.4 µM (inactive)
- GI50 [47]: 6.18 µM (inactive)
- GI50 [48]: 17.4 µM (inactive)
- GI50 [49]: 16.3 µM (inactive)
- GI50 [50]: 17 µM (inactive)
- GI50 [51]: 18 µM (inactive)
- GI50 [52]: 20.5 µM (inactive)
- GI50 [53]: 16.7 µM (inactive)
- GI50 [54]: 5.13 µM (inactive)
- GI50 [55]: 10.6 µM (inactive)
- GI50 [56]: 17.9 µM (inactive)
- GI50 [57]: 14.6 µM (inactive)
- GI50 [58]: 11 µM (inactive)
- GI50 [59]: 14.3 µM (inactive)
